The structures appear in SMILES notation. Converted amounts (≈) assume the structure as drawn. Where two headings read alike, the source gives them in different places.

Data set [1] deals with P. aeruginosa ATCC 27853. Kind of data set: Acute mouse lung infection model. The following applies: mice; for survival rate: monitored over 9 days; for maximum dose, limited due to toxicity: aerosol route. On the procedure: Aerosol Administration of antibiotics: Antibiotics were aerosolized using a microspray aerosol device (MicroSprayer Model IA-C, PennCentury, Philadelphia, Pa.) attached to a FMJ-250 High-Pressure Syringe (PennCentury, Philadelphia, Pa.). […] For administration, each mouse was anesthetized (5% isoflurane in oxygen running at 4 L/min) and positioned securely at a 45-50° angle by the upper teeth, the microspray aerosol tip was inserted to the bifurcation and a 50 μl volume was administered.
The bacterial suspensions were adjusted to approximately 1-6×10^5 CFU/ml by correlation of the absorbance at 600 nm with predetermined plate counts. […] On day 4, mice were infected by intratracheal (IT) instillation of 0.05 ml of inoculum using a curved oral gavage tip attached to a 1 ml syringe. […] Antibiotics were aerosolized using a microspray aerosol device. All infections and aerosol treatments were performed under isoflurane anesthesia (5% isoflurane in oxygen running at 4 L/min). An untreated group of mice (n=8) was sacrificed prior to the initiation of treatment to determine baseline bacterial counts. […] The lungs were removed aseptically and homogenized (Pro200 homogenizer, Pro Scientific, Monroe, Conn.) in 1 ml of sterile saline. Serial 10-fold dilutions of the homogenized lung were plated on Mueller-hinton agar (MHA), and colonies counted.
In addition, due to the need for anesthesia for treatment, the maximum number of daily doses was limited to two.

In data set [2] the test system is P. aeruginosa ATCC 27853. Kind of data set: MIC, broth microdilution. It is filed as cell-based. The note with it: Pseudomonas aeruginosa, ATCC27853, P. aeruginosa ATCC27853. As for the experimental part: (§1) Bacterial strains MIC testing: P. aeruginosa ATCC 27853 and NH57388A were used in these studies. MICs were determined by a broth microdilution assay according to CLSI reference methods (Methods for dilution of antimicrobial susceptibility test for bacteria that grow aerobically. Seventh Edition: Clinical and Laboratory Standards Institute (2006) M&-A7, incorporated by reference in its entirety). Assays were performed in a final volume of 100 μl. The bacterial suspensions were adjusted to yield a cell density of 5×10^5 CFU/ml. Antibiotics were prepared at a concentration equivalent to twofold the highest desired final concentration in culture medium and were then diluted directly into 96-well microtiter plates. Microtiter plates were incubated for 24 h at 35° C. and were read by using a microtiter plate reader (Molecular Devices) at 600 nm as well as by visual observation by using a microtiter plate reading mirror.

Data set [3] relates to P. aeruginosa NH57388A. Kind of data set: MIC, broth microdilution. It is filed as cell-based. The note with it: P. aeruginosa NIH57388A CF. As for the experimental part: as §1
The next data set is described as follows: in vivo. The following applies: rat, 10 mg/kg. As for the experimental part: This example relates to aerosol and intravenous administration of fluoroquinolones in saline. A rat pharmacokinetic model was used to compare intravenous and pulmonary administration of fluoroquinolones. […] Doses were administered via the lateral tail vein, or to the lung just above the tracheal bifurcation using a micro-spray aerosol device (Penn Century, Philadelphia, Pa.).
Approximately 0.3 ml blood samples were taken from 2-6 rats at each timepoint via an indwelling jugular vein cannula, and collected in lithium heparin tubes. Bronchial alveolar lavage (BAL) and lung tissue were collected following euthanasia. […] Sample concentrations were determined against a standard curve.

Data set [4] has as its system P. aeruginosa NH57388A. Kind of data set: Chronic mouse lung infection model. It counts as in vivo. The note with it: mice, aerosol tobramycin 60 mg/kg twice a day for three consecutive days. On the procedure:
Bacterial cells were harvested by centrifugation (23,000×g, 30 min, at 4° C.) and resuspended in 3-6 ml of MHB. The supernatant was collected and placed in 80° C. water-bath for 30 min. […] The precipitated alginate was collected with a sterile bacterial loop and washed several times in sterile saline. The purified alginate was then resuspended in 10 ml of sterile saline and stirred vigorously to form a homogeneous suspension. […] The bacterial suspension was diluted (1:10) in the alginate suspension to yield about 10^8 CFU/ml. […] On day 4, the mice were infected using a curved bead-tipped oral gavage attached to a 1 ml syringe while under isoflurane anesthesia.

For data set [5] the following is noted: aerosol dose of […], adults with cystic fibrosis, Cooney et al. 1994; cited from earlier work.
Where [6] appears, read: Pseudomonas aeruginosa, NH57388A, read-out: MIC.
[7] abbreviates: male, Sprague-Dawley, in vivo, inhaled or intranasal.
The mark [8] stands for this setting: male, Sprague-Dawley, in vivo, iv.

On to `C[C@H]1[C@H](NC(=O)/C(=N\OC(C)(C)C(=O)O)c2csc(N)n2)C(=O)N1S(=O)(=O)O` [Aztreonam, aztreonam], for which the survival rate in the data set with P. aeruginosa ATCC 27853 [1] (aerosol 800 mg/kg/day (400 mg/kg BID)) is on record as 20%. For the same compound, the “mean reductions in bacterial counts” value with P. aeruginosa ATCC 27853 [1] (aerosol aztreonam 400 mg/kg twice a day for 2 consecutive days) came to 0.24 log CFU per lung. Also, the “maximum dose, limited due to toxicity” value with P. aeruginosa ATCC 27853 [1] came to 400 mg/kg. Besides, the MIC against P. aeruginosa ATCC 27853 [2] and in the data set with P. aeruginosa NH57388A [3] (setting [6]) was 4 µg/mL (≈ 9.19 µM) throughout.

As for `O=C(O)c1cn(C2CC2)c2cc(N3CCNCC3)c(F)cc2c1=O` [Ciprofloxacin, ciprofloxacin], in “in vivo” (Aerosol, in saline), the MAT is given as 0.59 h.

As for `COc1c(N2CCNC(C)C2)c(F)cc2c(=O)c(C(=O)O)cn(C3CC3)c12` (stereo not shown) [Gatifloxacin, gatifloxacin], in the data set “in vivo” (male, Sprague-Dawley, in vivo), the “F, % from Lung vs IV” value is 100% and the MAT stood at 0 h. Also, in “in vivo” (setting [7]), the exposure (AUC) (usually concentration integrated over time) stood at 3120 ng·h/mL; the AUC(0-inf) – broadly, total exposure, with the tail of the curve extrapolated – turned out to be 5830 ng·h/mL; the mean residence time MRT – broadly, a mean duration of stay, worked out from the concentration-time curve – turned out to be 1.34 h; the half-life – broadly, how long it takes for the measured level to halve – is 1.13 h. In “in vivo” (setting [8]), this compound had an AUC of 350 ng·h/mL, an AUC(0-inf) of 5310 ng·h/mL, a mean residence time MRT of 1.39 h and a half-life of 1.06 h.

For `CO/N=C1\CN(c2nc3c(cc2F)c(=O)c(C(=O)O)cn3C2CC2)CC1CN` (stereo not shown) [Gemifloxacin, gemifloxacin], in the data set “in vivo” (male, Sprague-Dawley, in vivo), the “F, % from Lung vs IV” value is listed as 86% and the MAT is recorded as 0.65 h. In the data set “in vivo” (setting [7]), this compound gave an exposure (AUC) of 140000 ng·h/mL, an area under the curve AUC(0-inf) of 5860 ng·h/mL, an MRT of 2.06 h and a half-life of 1.68 h. Besides, in the data set “in vivo” (setting [8]), the area under the curve (AUC) is 900 ng·h/mL, the AUC(0-inf) came out at 4540 ng·h/mL, the MRT was found to be 1.41 h and the half-life was 1.04 h.

On to `CCn1cc(C(=O)O)c(=O)c2cc(F)c(N3CCNCC3)cc21` [Norfloxacin, norfloxacin], for which, in the data set “in vivo” (male, Sprague-Dawley, in vivo), the “F, % from Lung vs IV” value worked out at 100% and the MAT is on record as 0 h. Besides, in the data set “in vivo” (setting [7]), the AUC was found to be 24600 ng·h/mL, the total exposure AUC(0-inf) was determined as 4460 ng·h/mL, the mean residence time MRT is 1.29 h and the half-life was 1.13 h. Further, in “in vivo” (setting [8]), the AUC came out at 800 ng·h/mL, the AUC(0-inf) was 4650 ng·h/mL, the mean residence time (MRT) was 1.59 h and the half-life was 1.21 h.

On to `NC[C@H]1O[C@H](O[C@H]2[C@H](O)[C@@H](O[C@H]3O[C@H](CO)[C@@H](O)[C@H](N)[C@H]3O)[C@H](N)C[C@@H]2N)[C@H](N)C[C@@H]1O` [Tobramycin, tobramycin], for which the survival rate with P. aeruginosa ATCC 27853 [1] (aerosol 120 mg/kg/day (60 mg/kg BID)) is 60%. In addition, in the data set with P. aeruginosa ATCC 27853 [1], the “maximum dose, limited due to toxicity” value was 60 mg/kg. Further, the “mean reductions in bacterial counts” value in the data set on P. aeruginosa ATCC 27853 [1] (aerosol tobramycin 60 mg/kg twice a day for 2 consecutive days) was 2.70 log CFU per lung. The minimal inhibitory concentration (MIC) (commonly the lowest concentration that inhibits growth of the organism) was 0.5 µg/mL (≈ 1.07 µM) against P. aeruginosa NH57388A [3] and less than 1 µg/mL in the data set on P. aeruginosa NH57388A [3] (setting [6]). Moreover, the “mean log CFU reductions” value with P. aeruginosa NH57388A [4] is 2.9 log CFU. The bioavailability entry in data set [5] is on record as “about 9%”.

These data come from patent publication US10722519B2, “Aerosol fluoroquinolone formulations for improved pharmacokinetics” (priority 2008, dated 2020).
